Measured values as given in patent US11993591B2, “Chromen-4-one derivatives for the treatment and prophylaxis of hepatitis B virus disease” (Hoffmann-La Roche Inc., priority 2018, dated 2024).

How the values were obtained:
[1] = test system: HBV (extracellular HBsAg) in primary human hepatocytes; experiment: Cryopreserved Primary Human Hepatocytes (PHH) HBV infection assay; type: cell-based; conditions: Hepatitis B virus, Hepatocyte, 216 h; extracellular HBsAg (CLIA), HBV-infected cryopreserved PHH, 9 days post-compound treatment
Protocol: This assay is used to confirm the anti-HBV effect of the compounds in HBV PHH infection assay. Cryopreserved PHH (BioreclamationIVT, Lot YJM) was thawed at 37° C. and gently transferred into pre-warmed InVitroGRO HT medium (BioreclamationIVT, Cat. S03317).
The mixture was centrifuged at 70 relative centrifugal force (RCF) for 3 mins at RT, and the supernatant was discarded. Pre-warmed InVitroGRO CP medium (BioreclamationIVT, Cat #S03316) was added to the cell pellet to gently re-suspend cells. The cells were seeded at the density of 5.8×10^4 cells per well to collagen I coated 96-well plate (Gibco, Cat. A1142803) with the InVitroGRO CP medium. All plates were incubated at 37° C. with 5% CO2 and 85% humidity.
At 20 hours after plating, the medium was changed to PHH culture medium (Dulbecco's Modified Eagle Medium (DMEM)/F12 (1:1) (Gibco, Cat. 11320-033), 10% fetal bovine serum (Gibco Cat. 10099141), 100 U/mL penicillin, 100 μg/mL streptomycin (Gibco, Cat. 151401-122), […] (Invitrogen Cat. PHG0311L), 20 ng/mL dexamethasone (Sigma, Cat. D4902) and 250 ng/mL human recombinant insulin (Gibco, Cat. 12585-014)). And the cells were incubated at 37° C. with 5% CO2 and 85% humidity for 4 hours. The medium was then changed to pre-warmed PHH culture medium containing 4% polyethylene glycol (PEG) MW8000 (Sigma, Cat. P1458-50ML) and 1% DMSO (Sigma, Cat. D2650). 5.8×10^6 genomic equivalents of HBV were added into the medium.
At 24 hours post-infection, the cells were gently washed with PBS and refreshed with PHH culture medium supplemented with 1% DMSO, and 0.25 mg/mL Matrix gel (Corning, Cat. 356237) at 200 μL per well. All plates were immediately placed in at 37° C. CO2 incubator. 24 hours later, serial dilutions of compounds made with DMSO were further diluted with the same culture medium (PHH culture medium supplemented with 1% DMSO and 0.25 mg/mL Matrix gel as described above) before they were added to the cells to reach desired final compound concentrations and 1% DMSO concentration. The medium containing the compounds were refreshed every three days.
At 9 days post-compound treatment, extracellular HBsAg level were measured with Chemiluminescence Immuno Assay (CLIA) kit (Autobio, HBsAg Quantitative CLIA). Extracellular HBV DNA was extracted by MagNA Pure 96 system (Roche) and then determined by quantitative PCR with the following primers and probe: […]
HBsAg IC50 and HBV DNA IC50 values were derived from the dose-response curve using 4 parameter logistic curve fit method.

[2] = test system: HBV cccDNA (HBeAg level) in HepDES19 cells; experiment: Engineered HepDES19 primary screen assay (HBeAg as surrogate marker for cccDNA); type: cell-based; conditions: Hepatitis B virus, HepDES19, 120 h
From the text: The assay was employed to screen for novel cccDNA inhibitors. HepDES19 is a cccDNA-producing cell line. In this cell line, HBeAg in the cell culture supernatant as surrogate marker, as HBeAg production depends on cccDNA level and activity. HepDES19 is an engineered cell line which contains a 1.1 unit length HBV genome, and pgRNA transcription from the transgene is controlled by Tetracycline (Tet). In the absence of Tet, pgRNA transcription will be induced, but HBV e antigen (HBeAg) could not be produced from this pgRNA due to very short leader sequence before the HBeAg start codon and the start codon is disrupted. Only after cccDNA is formed, the missing leader sequence and start codon mutation would be restored from the 3′-terminal redundancy of pgRNA, and then HBeAg could be synthesized. Therefore, HBeAg could be used as a surrogate marker for cccDNA (Zhou, T. et al., Antiviral Res. (2006), 72(2), 116-124; Guo, H. et al., J. Virol. (2007), 81(22), 12472-12484).
HepDES19 cells were seeded at 2×10^6 cells per T150 flask and cultured with the culture medium (Dulbecco's Modified Eagle Medium: Nutrient Mixture F-12 [DMEM-F12, Gibco Cat. 11320-82], 10% Fetal Bovine Serum [FBS, Clontech Cat. 631101], 0.1 mM Non-Essential Amino Acids Solution [NEAA, Gibco Cat. 11140-050], 50 μg/mL Penicillin-Streptomycin [PS, Invitrogen Cat. 15140-163], 500 μg/mL Geneticin [G418, Invitrogen Cat. 10131-027]) containing 3 μg/mL Tet (Sigma, Cat. 87128) for 5 days. Cells were then seeded at 4×10^6 cells per T150 in the same culture medium as described above in the absence of Tet for 8 days. Cells were then harvested and frozen at density of 2×10^6 cells per mL. For compound testing, the frozen cells were thawed and seeded into 96-well plates at a density of 6×10^4 cells per well. At 24 hours after seeding, half log serial dilutions of compounds made with Dimethyl sulfoxide (DMSO, Sigma, Cat. D2650) were further diluted with the same culture medium as described above before they were added to the cells to reach desired final compound concentrations and 1% DMSO concentration. Plates were then incubated at 37° C. for another 5 days before measurement of HBeAg level and cell viability. Intracellular HBeAg level were measured with enzyme-linked immunosorbent assay (ELISA) kit (Shanghai Kehua Diagnostic Medical Products Co., Ltd). Cell viability was assessed using Cell Counting Kit-8 (Donjindo, Cat. CK04-20). IC50 values were derived from the dose-response curve using 4 parameter logistic curve fit method.
The compounds of the present invention were tested for their capacity to inhibit extracellular HBeAg level as described herein.

Row | SMILES | IC50 [1] | IC50 [2]
1 | Cc1cc(Br)cnc1NC(=O)c1cc(=O)c2cccc(Cl)c2o1 [Example 10, N-(5-bromo-3-methylpyridin-2-yl)-8-chloro-4-oxo-chromene-2-carboxamide] | 24.3 µM | –
2 | O=C(Nc1nnc(C(F)(F)F)s1)c1cc(=O)c2cccc(Cl)c2o1 [Example 6, 8-chloro-4-oxo-N-(5-(trifluoromethyl)-1,3,4-thiadiazol-2-yl)-chromene-2-carboxamide] | 9.53 µM | –
3 | CC1c2ccc(OCCOC3CC(C(=O)O)C3)cc2CCN1c1cc(=O)c2cccc(Cl)c2o1 (centres unmarked) [Example 40, 3-[2-[[2-(8-chloro-4-oxo-chromen-2-yl)-1-methyl-3,4-dihydro-1H-isoquinolin-6-yl]oxy]ethoxy]cyclobutanecarboxylic Acid] | 34.6 µM | –
4 | O=C(Nc1ccc(Cl)cc1C(F)(F)F)c1cc(=O)c2cccc(Cl)c2o1 [Example 12, 8-chloro-N-(4-chloro-2-(trifluoromethyl)phenyl)-4-oxo-chromene-2-carboxamide] | 34.2 µM | –
5 | Cc1cc(OCCOCC(=O)O)ccc1NC(=O)c1cc(=O)c2cccc(Cl)c2o1 [Example 19, 2-(2-(4-(8-chloro-4-oxo-chromene-2-carboxamido)-3-methylphenoxy)ethoxy)acetic Acid] | 31.6 µM | –
6 | Cc1cc(Cl)ccc1NC(=O)c1cc(=O)c2cc(Cl)cc(Cl)c2o1 [Example 13, 6,8-dichloro-N-(4-chloro-2-methylphenyl)-4-oxo-chromene-2-carboxamide] | 36.3 µM | –
7 | O=C(O)C1CC(OCCOc2ccc3c(c2)CCN(c2cc(=O)c4cccc(Cl)c4o2)C3)C1 (centres unmarked) [Example 36, 3-[2-[[2-(8-chloro-4-oxo-chromen-2-yl)-3,4-dihydro-1H-isoquinolin-6-yl]oxy]ethoxy]cyclobutanecarboxylic Acid] | 0.61 µM | –
8 | O=C(O)C1CC(OCCOc2ccc3c(c2)CN(c2cc(=O)c4cccc(Cl)c4o2)C3)C1 (centres unmarked) [Example 37, 3-[2-[2-(8-chloro-4-oxo-chromen-2-yl)isoindolin-5-yl]oxyethoxy]cyclobutanecarboxylic Acid] | 1.06 µM | –
9 | O=C(Nc1ccc(OCCOC2CC(C(=O)O)C2)cc1F)c1cc(=O)c2cccc(Cl)c2o1 (centres unmarked) [Example 1, 3-(2-(4-(8-chloro-4-oxo-chromene-2-carboxamido)-3-fluorophenoxy)ethoxy)cyclobutanecarboxylic Acid] | 2.86 µM | –
10 | Cc1cc(OCCOC2CC(C(=O)O)C2)ccc1NC(=O)c1cc(=O)c2cccc(Cl)c2o1 (centres unmarked) [Example 2, 3-(2-(4-(8-chloro-4-oxo-chromene-2-carboxamido)-3-methylphenoxy)ethoxy)cyclobutanecarboxylic Acid] | 4.36 µM | –
11 | O=C(c1cc(=O)c2cccc(Cl)c2o1)N1CCc2ccc(Cl)cc2C1 [Example 16, 8-Chloro-2-(7-chloro-3,4-dihydro-1H-isoquinoline-2-carbonyl)chromen-4-one] | 40.3 µM | –
12 | O=C(O)COCCOC1CC2CCC(C1)N2c1cc(=O)c2cccc(Cl)c2o1 (centres unmarked) [Example 39, 2-(2-((8-(8-chloro-4-oxo-chromen-2-yl)-8-azabicyclo[3.2.1]octan-3-yl)oxy)ethoxy)acetic Acid] | 38.5 µM | –
13 | O=C(NCc1ccc(Cl)cc1Cl)c1cc(=O)c2cccc(Cl)c2o1 [Example 9, 8-chloro-N-(2,4-dichlorobenzyl)-4-oxo-chromene-2-carboxamide] | 14.1 µM | –
14 | Cc1cc(C(=O)O)ccc1NC(=O)c1cc(=O)c2cccc(Cl)c2o1 [Example 18, 4-(8-chloro-4-oxo-chromene-2-carboxamido)-3-methylbenzoic Acid] | 43 µM | –
15 | Cc1ccccc1NC(=O)c1cc(=O)c2cccc(Cl)c2o1 [Example 15, 8-chloro-4-oxo-N-(o-tolyl)-chromene-2-carboxamide] | 37.6 µM | –
16 | O=C(O)c1cccc(CN2CCN(c3cc(=O)c4cccc(Cl)c4o3)CC2)c1 [Example 38, 3-((4-(8-chloro-4-oxo-chromen-2-yl)piperazin-1-yl)methyl)benzoic Acid] | 38.5 µM | –
17 | O=c1c(I)c(N2CCC(O)CC2)oc2c(Cl)cccc12 [Example 61, 8-chloro-2-(4-hydroxypiperidin-1-yl)-3-iodo-chromen-4-one] | – | 30.9 µM
18 | O=C(O)C1CC(OCCOc2ccc3c(c2)CN(c2cc(=O)c4cccc(Cl)c4o2)C3=O)C1 (centres unmarked) [Example 64, 3-(2-((2-(8-chloro-4-oxo-chromen-2-yl)-1-oxoisoindolin-5-yl)oxy)ethoxy)cyclobutanecarboxylic Acid] | – | 36.6 µM
19 | O=c1cc(-n2ccc(OCc3ccccc3)cc2=O)oc2c(Cl)cccc12 [Example 59, 4-(benzyloxy)-1-(8-chloro-4-oxo-chromen-2-yl)pyridin-2(1H)-one] | – | 24.4 µM
20 | COC(=O)c1cc(Cl)ccc1NC(=O)c1cc(=O)c2cccc(Cl)c2o1 [Example 25, Methyl 5-chloro-2-(8-chloro-4-oxo-chromene-2-carboxamido)benzoate] | – | 16.2 µM
21 | COC(=O)c1cccc(COC2CC3CCC(C2)N3c2cc(=O)c3cccc(Cl)c3o2)c1 (centres unmarked) [Example 41, Methyl 3-(((8-(8-chloro-4-oxo-chromen-2-yl)-8-azabicyclo[3.2.1]octan-3-yl)oxy)methyl)benzoate] | – | 3.99 µM
22 | O=C(c1cc(=O)c2cccc(Cl)c2o1)N1CCCc2ccc([N+](=O)[O-])cc21 [Example 33, 8-chloro-2-(7-nitro-3,4-dihydro-2H-quinoline-1-carbonyl)chromen-4-one] | – | 35.3 µM
23 | COc1ccc2c(c1)CCN(C(=O)c1cc(=O)c3cccc(Cl)c3o1)C2 [Example 14, 8-Chloro-2-(6-methoxy-3,4-dihydro-1H-isoquinoline-2-carbonyl)chromen-4-one] | 36.3 µM | –
24 | O=c1cc(N2CC3(CC(O)C3)C2)oc2c(Cl)cccc12 [Example 47, 8-chloro-2-(6-hydroxy-2-azaspiro[3.3]heptan-2-yl)chromen-4-one] | – | 10.7 µM
25 | O=C(Nc1ccc(OCCOC2CC(C(=O)O)C2)cc1C(F)(F)F)c1cc(=O)c2cccc(Cl)c2o1 (centres unmarked) [Example 5, 3-(2-(4-(8-chloro-4-oxo-chromene-2-carboxamido)-3-(trifluoromethyl)phenoxy)ethoxy)cyclobutanecarboxylic Acid] | 7.42 µM | –
26 | O=C(c1cc(=O)c2cccc(Cl)c2o1)N1CCc2cccc(Cl)c2C1 [Example 28, 8-chloro-2-(8-chloro-3,4-dihydro-1H-isoquinoline-2-carbonyl)chromen-4-one] | – | 24.3 µM
